From patent publication US20220220041A1, “USE OF UREA AS AN ANTIMICROBIAL ADDITIVE IN AN AQUEOUS SUSPENSION” (Omya International AG, priority 2019, published 2022)

What was measured:
[1] = tested on: non-sterile calcium carbonate slurry (H90), environmental bacteria; assay: Example 1 preservation efficacy: sterile H90 slurry with dry urea, up to three inoculations with non-sterile H90 slurry, TVC; type: cell-based; conditions: for TVC cfu/ml 2nd Inoculation / TVC cfu/ml 3rd Inoculation / TVC cfu/ml 1st Inoculation: calcium carbonate 75%, water 25% w/w, H90 slurry; for TVC cfu/ml 1st Inoculation: 3 days at 30° C. after inoculation
Protocol: (§1) All quoted bacterial counts (Total viable counts (TVC) values), unless otherwise indicated, are given in cfu/ml and determined after at least 2 days following plate-out and incubation at 30° C. and in accordance with the counting method described in “Bestimmung von aerobe mesophilen Keimen”, Schweizerisches Lebensmittelbuch, chapter 56, section 7.01, edition of 1985, revised version of 1988.
(§2) Unless otherwise stated, per tryptic soy agar plate (TSA, prepared using BD 236950) 0.1 ml of a solution or suspension is plated. Counts from 10000 cfu/ml to 99999 cfu/ml are reported as >1E4 cfu/ml. Counts from 100000 cfu/ml to 999999 cfu/ml are reported as >1E5 cfu/ml. Counts above 1000000 cfu/ml are reported as >1E6 cfu/ml.
(§3) Non-sterile slurries (H60 or H90) contain contamination with environmental bacteria at a TVC>100000 cfu/ml. The contamination originates spontaneously and a bacterial burden of at least>100000 cfu/ml is confirmed prior use as inoculum by TVC. The following bacterial species are known to occur, as identified by 16S RNA sequencing or MALDI-TOF-MS analysis: Rhizobium radiobacter, Brevundimonas intermedia, Brevundimonas diminiuta, Sphingomonas sp., Pseudomonas stutzeri, Pseudomonas sp., Comomonas aquatic.
50 g sterile slurry H90 with a solid content of 75 wt.-%, based on the total weight of the H90 slurry is supplemented with different concentrations of dry urea. The samples are then stored for 3 days at 30° C. After the storage, the samples are inoculated with 1 ml non-sterile calcium carbonate slurry (H90), incubated for 3 days at 30° C. and the TVC is determined. Samples are further inoculated with 1 ml non-sterile calcium carbonate slurry (H90). Up to three inoculations are performed.

[2] = tested on: Escherichia coli (DSMZ 46295); assay: Example 3 preservation efficacy: H60 slurry with industrial grade urea solution, E. coli inoculum, TVC; type: cell-based; conditions: industrial grade urea 5.5%, calcium carbonate 69%, water 25.5% w/w, 30° C.
Protocol: as §1, §2
(§4) For the preparation of inoculum with a single bacterial species (for example Escherichia coli (DSMZ 46295) or Pseudomonas putida), bacteria are spread onto Tryptic soy broth agar (BD, 236950) by dilution streaking followed by incubation at 30° C. for at least 24 h until colonies appear. Overnight cultures are generated by inoculation of 3 ml Tryptic soy broth (Fluka 22092) with a single colony followed incubation with agitation at […] at 30° C. for 24 h.
(§5) 50 g sterile calcium carbonate slurry (H60) with a solid content of 77.3 wt.-%, based on the total weight of the H60 slurry is supplemented with industrial grade 50% (w/w) urea solution (Yara Canda Inc.) or water to different final concentrations. The industrial grade contained natural resident (i.e. bacteria in a non-growing state) bacteria. The bacterial of the industrial urea burden is 5 cfu/3 ml as determined by TVC. The species are identified by characterizing the grown colonies from the TVC by 16 S RNA sequencing, known to the person skilled in the art.
(§6) The samples are further artificially inoculated with 1 ml non-sterile calcium carbonate slurry (H60), 1 ml non-sterile calcium carbonate slurry (H90), 0.02 ml overnight culture of Escherichia coli (DSMZ 46295) and 0.02 ml overnight culture Pseudomonas putida. The control sample are not inoculated. […]

Pseudomonas putida = assay: Example 3 preservation efficacy: H60 slurry with industrial grade urea solution, P. putida inoculum, TVC; type: cell-based; conditions: industrial grade urea 5.5%, calcium carbonate 69%, water 25.5% w/w, 30° C.
Protocol: as §1, §2, §4, §5, §6

[3] = tested on: non-sterile calcium carbonate slurry (H60), environmental bacteria; assay: Example 4 preservation efficacy: H60 slurry with 61% (w/w) urea solution, non-sterile H60 inoculum, TVC; type: cell-based; conditions: 30° C.
Protocol: as §1, §2, §3
50 g sterile calcium carbonate slurry (H60) with a solid content of 78.3 wt.-%, based on the total weight of the H60 slurry are supplemented with 61% (w/w) urea solution to different final concentrations. The samples are inoculated with 1 ml non-sterile calcium carbonate slurry (H60). Samples are incubated at 30° C. and TVC and pH are determined at various time points (0 day, 1 day, 4, days, 11 days).

[4] = pH measurement of the suspension; type: physicochemical; conditions: 30° C.; for pH Day 8: Table 2; for pH Day 4: Table 3; for pH Day 11: Table 5; for pH Day 16: industrial grade urea 5.5%, calcium carbonate 69%, water 25.5% w/w
Protocol: The pH of a suspension is measured at 25° C. using a Mettler Toledo Seven Easy pH meter and a Mettler Toledo InLab® Expert Pro pH electrode. A three point calibration (according to the segment method) of the instrument is first made using commercially available buffer solutions having pH values of 4, 7 and 10 at 20° C. (from Aldrich). The reported pH values are the endpoint values detected by the instrument (the endpoint is when the measured signal differs by less than 0.1 mV from the average over the last 6 s).

[5] = urea 0.40%, calcium carbonate 75.61%, water 23.99% w/w
[6] = urea 1.10%, calcium carbonate 75.48%, water 23.42% w/w
[7] = urea 2.80%, calcium carbonate 75.21%, water 21.98% w/w
[8] = urea 2.75%, calcium carbonate 73.1%, water 24.15% w/w, inoculum none

## NC(N)=O [urea]
[1]; low urea concentrations (table 1: 0.025-0.075%)
  preservation of calcium carbonate slurries from bacterial growth: not able to preserve
[1]; urea 0.025%
  TVC cfu/ml 2nd Inoculation: >1E6 cfu/ml
  TVC cfu/ml 3rd Inoculation: >1E6 cfu/ml
  TVC cfu/ml 1st Inoculation: >1E6 cfu/ml
[1]; urea 0.05%
  TVC cfu/ml 2nd Inoculation: >1E6 cfu/ml
  TVC cfu/ml 3rd Inoculation: >1E6 cfu/ml
  TVC cfu/ml 1st Inoculation: >1E6 cfu/ml
[1]; urea 0.075%
  TVC cfu/ml 2nd Inoculation: >1E6 cfu/ml
  TVC cfu/ml 3rd Inoculation: >1E6 cfu/ml
  TVC cfu/ml 1st Inoculation: >1E6 cfu/ml
[2]
  TVC cfu/ml Day 1: <100 cfu/ml
  TVC cfu/ml Day 4: <100 cfu/ml
  TVC cfu/ml Day 8: <100 cfu/ml
  TVC cfu/ml Day 11: <100 cfu/ml
  TVC cfu/ml Day 13: <100 cfu/ml
Pseudomonas putida
  TVC cfu/ml Day 1: <100 cfu/ml
  TVC cfu/ml Day 4: <100 cfu/ml
  TVC cfu/ml Day 8: <100 cfu/ml
  TVC cfu/ml Day 11: <100 cfu/ml
  TVC cfu/ml Day 13: <100 cfu/ml
[3]; [5]
  TVC cfu/ml Day 4: >1E5 cfu/ml
  TVC cfu/ml Day 11: >1E5 cfu/ml
[3]; urea 0.40%, calcium carbonate 75.61%, water 23.99% w/w, detection limit 100 cfu/ml
  TVC cfu/ml Day 1: >1E5 cfu/ml
[3]; [6]
  TVC cfu/ml Day 1: >1E5 cfu/ml
  TVC cfu/ml Day 4: >1E5 cfu/ml
  TVC cfu/ml Day 11: >1E5 cfu/ml
[3]; [7]
  TVC cfu/ml Day 1: >1E4 cfu/ml
  TVC cfu/ml Day 4: 600 cfu/ml
  TVC cfu/ml Day 11: <100 cfu/ml
[4]; [8]
  pH Day 8: 9.16
  pH Day 4: 9.11
[4]; urea 7.6%, calcium carbonate 67.1%, water 25.3% w/w, inoculum none
  pH Day 8: 9.25
[4]; urea 0.65%, calcium carbonate 75.7%, water 23.65% w/w, inoculum none
  pH Day 4: 9.06
[4]; urea 1.28%, calcium carbonate 74.9%, water 23.82% w/w, inoculum none
  pH Day 4: 9.05
[4]; urea 0.40%, calcium carbonate 75.61%, water 23.99% w/w, inoculum H60
  pH Day 11: 9.05
[4]; urea 1.10%, calcium carbonate 75.48%, water 23.42% w/w, inoculum H60
  pH Day 11: 9.25
[4]; urea 2.80%, calcium carbonate 75.21%, water 21.98% w/w, inoculum H60
  pH Day 11: 9.10
[4]; inoculum E. coli
  pH Day 16: 9.02
[4]; inoculum H60
  pH Day 16: 9.00
[4]; inoculum H90
  pH Day 16: 8.97
[4]; inoculum P. putida
  pH Day 16: 9.04
[4]; inoculum none
  pH Day 16: 9.02
